Data as given in patent US12540164B2, “Peptides for treatment and prevention of nonalcoholic fatty liver disease and fibrosis” (UNIVERSITE DE STRASBOURG, priority 2017, dated 2026).
“Also recorded” adds a separate entry of the source. Ends that are not written are not given here.

What was measured:
[1] = Glucose tolerance test (GTT) in diet induced obese mice; assay type: in vivo; conditions: fasting male DIO mice, single injection at day 0; subcutaneous glucose bolus; AUC D-5 vs D+6
Description: These are results obtained from series of glucose tolerance test (GTT) and data from two-time points namely 30 minutes and 120 minutes were used to generate these curves for both control and PATAD treated diet induced obese (DIO) and diabetic wild type male C57/B6 mice (control).
(§1) For this study, mice were on a C57/BL6 genetic background. All animals were housed in a temperature and humidity controlled facility, with a 12 h-light/12 h-dark cycle fed during the whole phase mice will be fed with a 60% high fat diet from Research Diets (D12492), and tap water will be provided ad libitum. Mice were fed and tested regularly for glucose tolerance test for their glucose tolerance and once they were glucose intolerant they were used for treatment.

[2] = tested on: fibrotic depots in the liver; assay: Transmitted electron microscopy of liver sections for fibrotic depots; assay type: in vivo; conditions: DIO-NASH mice, 3 months after injection in subcutaneous adipose tissue
Description: For the electron microscopy imaging on the liver extracts, the samples were immersed in glutaraldehyde (2.5%) and paraformaldehyde (2.5%) in cacodylate buffer (0.1 M, pH 7.4). The samples were post-fixed in 1% osmium tetroxide, dehydrated through graded alcohol (50, 70, 90, and 100%) and propylene oxide for 30 minutes each, and embedded in Epon 812. Semithin sections were cut at 2 μm on an ultra microtome (Leica Ultracut UCT) and ultrathin sections were cut at 70 nm and contrasted with uranyl acetate and lead citrate and examined at 70 kv with a Morgagni 268D electron microscope. Images were captured digitally by Mega View III camera (Soft Imaging System).

LOXL2 [3] = assay: LOXL2 ELISA on liver extracts; assay type: in vivo; conditions: 3 months post unique injection in subcutaneous adipose tissue, DIO male mice, n=4
Source text: (§2) LOXL2 is the enzyme promoting the development of fibrotic lesions by favoring the polymerization of collagen and FABP4 is a protein involved in lipid metabolism whose level increases with increasing lipid deposition in the liver.
For LOXL2 and GLP-1 measurements, the two commercially available kits: Lysyl Oxydase Like Protein 2 (LOXL2), Enzyme-linked Immunosorbent Assay Kit, Mus musculus, SEF552Mu, Cloud Clone Corp;
(§3) For the measurements on the liver extracts, the same kit for LOXL2 was used and for FABP4, the commercial kit used was the Elisa kit for Fatty Acid Binding Protein 4, Adipocyte (FABP4), SEB693Mu, Cloud Clone Corp.

LOXL2 [4] = assay: Immunostaining of liver cryosections for LOXL2 (DIO-NASH); assay type: in vivo; conditions: DIO-NASH mice, 3 months after injection in subcutaneous adipose tissue; vs untreated
Description: (§4) For immunofluorescence experiments, liver and kidneys freshly sampled were included in Optimal Cutting Temperature Compound™ (OCT™, Catalog #4583, Tissue-Tek® OCT™, Sakura® Finetek, Torrance, California, USA) and cryosections of 7 μm were cut with Cryostat Leica CM1950. Cryosections were washed with 1×PBS and fixated in 4% formaldehyde solution for 15 min (Catalog #: F555-4L, Sigma-Aldrich, Saint-Louis, Missouri, USA) and then permeabilized with 0.02% SDS-PBS for 30 seconds. Blocking solution was 5%-Bovine Serum Albumin (BSA) in PBS. Primary antibodies were diluted in blocking solution and incubated overnight and indicated secondary antibodies were diluted in PBS for 30 minutes. Nuclei were counterstained with Hoechst (Catalog #: D1306, Invitrogen, Carlsbad, California, USA). Slides were then mounted with Vectashield® Mounting Medium (Catalog #: H-1000, Vector Laboratories, Burlingame, California, USA). Images were acquired and analyzed with Zeiss Imager.Z2 microscope equipped with either Zeiss AxioVision or Zeiss ZEN 2012 software (Carl Zeiss Inc., Oberkochen, Germany). Anti-Collagen IV antibody, ab6586 from Abcam and LOXL2 antibody, GTX105085 from GeneTex were used.

FABP4 = FABP4 ELISA on liver extracts; assay type: in vivo; conditions: 3 months after single injection, DIO male mice
Source text: as §2, §3

FATP2 = assay: Expression levels of FATPs and FFARs in adipose tissue by real-time PCR after peptide injection; assay type: in vivo, mice; conditions: 11 days post single injection in subcutaneous adipose tissue, GAPDH reference, n=4 per group
Description: Mice were injected with a single dose of either scramble peptide or PATAD or ADPIF. 11 days post injection, the mice were euthanized and adipose tissue was sampled for RNA extraction followed by real-time PCR.
as §1
All peptides were initially dissolved in DMSO and then diluted in sterile saline solution at a concentration of 10 ng/μL. 2.5 μL of each peptide (stapled or scrambled) were mixed and then injected directly in the subcutaneous adipose tissue in each mouse.

[5] = tested on: ALT (alanine aminotransferase); assay: Plasma ALT ELISA; assay type: in vivo, mice; conditions: 3 months after a single subcutaneous peptide injection, n=4
Description: Mice presented were euthanized and their plasma and organs were sampled for analysis. […] Cryosection of the livers were then stained with Adipored and DAPI to detect the level of lipid droplets. […] Hepatic function is assessed by two liver related strong biomarkers namely (AST (Aspartate Aminotransferase) and ALT (Alanine Aminotransferase)), whose levels increase proportionately with liver damage.
Plasma samples from the indicated mice were used to determine plasma content of either AST (aspartate aminotransferase) or […] (alanine aminotransferase) both robust indicators of liver damage were measured using commercially purchased ELISA kits. These parameters were determined according to manufacturer's procedure. • SEB214Mu (96 Tests): Enzyme-linked Immunosorbent Assay Kit For Aspartate Aminotransferase (AST), Cloud Clone Corp. • SEA207Mu (96 Tests): Enzyme-linked Immunosorbent Assay Kit For Alanine Aminotransferase (ALT), Cloud Clone Corp.

Collagen IV = assay: Immunostaining of kidney cryosections for Collagen IV; assay type: in vivo; conditions: DIO(-NASH) mice 3 months post treatment; vs vehicle
Source text: as §4, with “Cryosections of kidneys from DIO vehicle treated and DIO ADPIF treated mice 3 months post treatment, were immunostained for collage IV deposition and tight junction with a ZO-1 antibody to assess the effect of ADPIF peptide on fibrosis progression in other soft tissues. For” for “For”, “Anti-Collagen IV antibody, ab6586 from Abcam and LOXL2 antibody, GTX105085 from GeneTex were used.” left out

Sequence: VECTTREKEVLASLDKAAFLTQLHS (not fully specified (bridges)) [ADPIF, R and S carry the stapling, preferably 2-(7-octenyl)arginine and 2-(4-pentenyl)serine]
- glucose tolerance test / prevention of hyperglycemia [1]: better effect in glucose tolerance test than the PATAD peptide; also recorded: more active than PATAD peptide in preventing hyperglycemia
- fibrotic depots / lesions in liver by transmitted electron microscopy [2]: no longer detected; also recorded: No such fibrotic depots were found
- hepatic protein content of LOXL2 (LOXL2 [3]): more potent than PATAD; also recorded: significant decrease
- LOXL2 expression in liver (immunostaining) (LOXL2 [4]): effective in preventing the progression of fibrotic markers; also recorded: reduced
- hepatic protein content of FABP4 (FABP4): more potent than PATAD; also recorded: significantly reduced
- FATP2 expression level in the adipose tissue (FATP2): more active than PATAD peptide
- circulating levels of ALT [5]: dramatic decrease; also recorded: more active in reducing circulating levels of ALT
- Collagen IV depots in the kidney (immunostaining) (Collagen IV): clear reduction; also recorded: More depots of Collagen IV are observed in the DIO-NASH vehicle than in the ADPIF treated
